Results published in patent US9527885B2, “Hepatitis C virus inhibitors” (BRISTOL-MYERS SQUIBB COMPANY, priority 2011, dated 2016).
Read-outs that look alike come from different tables or passages of the source.

Legend:
[1] = tested on: HCV genotype 1a (H77 strain) replicon in HUH-7 cells; assay: HCV replicon luciferase reporter assay, genotype 1a; format: cell-based; details: Hepatitis C virus, Huh-7, 72 h, 3 days incubation, read-out: LE_1a (EC50, range)
Summary of the method: (§1)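 Twenty-point, threefold compound titrations (0.5% DMSO) were incubated 3 days at 37 °C with 3.0×10^3 HUH-7 cells/well in 4% FCS. The cells stably carried luciferase replicons: genotype 1b Con1 (S1179I) or 1a H77 (NS3 P1496L, NS5A S2204I). Renilla signal was read after 2 h with 7.5 μM EnduRen, and EC50 was taken from a four-parameter logistic fit. Cytotoxicity (CC50) was measured by Cell Titer-Blue, 8 h.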

[2] = tested on: HCV genotype 1b (Con1) replicon in HUH-7 cells; assay: HCV replicon luciferase reporter assay, genotype 1b; format: cell-based; details: Hepatitis C virus, 72 h, 3 days incubation, read-out: LE_1b (EC50, range)
Summary of the method: as §1

[3] = HCV genotype 1a replicon luciferase, class symbols
[4] = HCV genotype 1b replicon luciferase, class symbols

Row | SMILES | EC50 [1, 3] [nM] | EC50 [2, 4] [nM] | other results
1 | C[C@@H]1CC/C=C\[C@@H]2C[C@@]2(C(=O)NS(=O)(=O)C2CC2)NC(=O)[C@@H]2C[C@@H](Oc3ncc(OCC4CC4)c4ccccc34)CN2C(=O)[C@@H](NC(=O)OC(C)(C)C(F)(F)F)[C@H](C)C1 [Compound 4030, 1,1,1-trifluoro-2-methylpropan-2-yl (2R,6S,7R,9R,13aS,14aR,16aS,Z)-2-(4-(cyclopropylmethoxy)isoquinolin-1-yloxy)-14a-(cyclopropylsulfonylcarbamoyl)-7,9-dimethyl-5,16-dioxo-1,2,3,5,6,7,8,9,10,11,13a,14,14a,15,16,16a-hexadecahydrocyclopropa[e]pyrrolo[1,2-a][1,4]diazacyclopentadecin-6-ylcarbamate] | < 5.46 | < 5.46 | –
2 | C[C@@H]1CCC[C@H](O)[C@@H]2C[C@@]2(C(=O)NS(=O)(=O)C2(C)CC2)NC(=O)[C@@H]2C[C@@H](Oc3ncc(OC4CC4)c4ccccc34)CN2C(=O)[C@@H](NC(=O)OC(C)(C)C(F)(F)F)[C@H](C)C1 [Compound 2002, 1,1,1-trifluoro-2-methylpropan-2-yl ((2R,6S,7R,9R,13S,13aR,14aR,16aS)-2-((4-cyclopropoxyisoquinolin-1-yl)oxy)-13-hydroxy-7,9-dimethyl-14a-(((1-methylcyclopropyl)sulfonyl)carbamoyl)-5,16-dioxooctadecahydrocyclopropa[e]pyrrolo[1,2-a][1,4]diazacyclopentadecin-6-yl)carbamate] | – | – | EC50 ([1]; HCV genotype 1a replicon luciferase reporter, range class): 4.82 to 103 nM; EC50 ([2]; HCV genotype 1b replicon luciferase reporter, range class): 4.82 to 103 nM
3 | CCOc1cnc(O[C@@H]2C[C@H]3C(=O)N[C@]4(C(=O)NS(=O)(=O)C5(C)CC5)C[C@H]4/C=C\CC[C@@H](C)C[C@@H](CC)[C@H](NC(=O)OC(C)(C)C(F)(F)F)C(=O)N3C2)c2ccccc12 [Compound 4202, 1,1,1-trifluoro-2-methylpropan-2-yl (2R,6S,7R,9R,13aS,14aR,16aS,Z)-2-(4-ethoxyisoquinolin-1-yloxy)-7-ethyl-9-methyl-14a-(1-methylcyclopropylsulfonylcarbamoyl)-5,16-dioxo-1,2,3,5,6,7,8,9,10,11,13a,14,14a,15,16,16a-hexadecahydrocyclopropa[e]pyrrolo[1,2-a][1,4]diazacyclopentadecin-6-ylcarbamate] | < 5.46 | < 5.46 | –
4 | CCOc1ccc2c(O[C@@H]3C[C@H]4C(=O)N[C@]5(C(=O)NS(=O)(=O)C6(C)CC6)C[C@H]5/C=C\CC[C@H](C)C[C@@H](C)[C@H](NC(=O)OC(C)(C)C(F)(F)F)C(=O)N4C3)nccc2c1 [Compound 5135, 1,1,1-trifluoro-2-methylpropan-2-yl ((2R,6S,7R,9S,13aS,14aR,16aS,Z)-2-((6-ethoxyisoquinolin-1-yl)oxy)-7,9-dimethyl-14a-(((1-methylcyclopropyl)sulfonyl)carbamoyl)-5,16-dioxo-1,2,3,5,6,7,8,9,10,11,13a,14,14a,15,16,16a-hexadecahydrocyclopropa[e]pyrrolo[1,2-a][1,4]diazacyclopentadecin-6-yl)carbamate] | 4.82 to 103 | < 5.46 | –
5 | CC[C@@H]1C[C@H](C)CC/C=C\[C@@H]2C[C@@]2(C(=O)NS(=O)(=O)C2CC2)NC(=O)[C@@H]2C[C@@H](Oc3ncc(OC)c4ccc(F)cc34)CN2C(=O)[C@H]1NC(=O)OC(C)(C)C [Compound 4001, tert-butyl tert-butyl (2R,6S,7R,9R,13aS,14aR,16aS,Z)-14a-(cyclopropylsulfonylcarbamoyl)-7-ethyl-2-(7-fluoro-4-methoxyisoquinolin-1-yloxy)-9-methyl-5,16-dioxo-1,2,3,5,6,7,8,9,10,11,13a,14,14a,15,16,16a-hexadecahydrocyclopropa[e]pyrrolo[1,2-a][1,4]diazacyclopentadecin-6-ylcarbamate] | < 5.46 | < 5.46 | –
6 | C[C@@H]1CC/C=C\[C@@H]2C[C@@]2(C(=O)NS(=O)(=O)C2CC2)NC(=O)[C@@H]2C[C@@H](Oc3nccc4ccc(F)cc34)CN2C(=O)[C@@H](NC(=O)OC(C)(C)C(F)(F)F)[C@H](C)C1 [Compound 4072, 1,1,1-trifluoro-2-methylpropan-2-yl (2R,6S,7R,9R,13aS,14aR,16aS,Z)-14a-(cyclopropylsulfonylcarbamoyl)-2-(7-fluoroisoquinolin-1-yloxy)-7,9-dimethyl-5,16-dioxo-1,2,3,5,6,7,8,9,10,11,13a,14,14a,15,16,16a-hexadecahydrocyclopropa[e]pyrrolo[1,2-a][1,4]diazacyclopentadecin-6-ylcarbamate] | < 5.46 | < 5.46 | –
7 | [2H]C([2H])([2H])Oc1cnc(O[C@@H]2C[C@H]3C(=O)N[C@]4(C(=O)NS(=O)(=O)C5(C)CC5)C[C@H]4CCCC[C@H](C)C[C@@H](C)[C@H](NC(=O)OC(C)(C)C(F)(F)F)C(=O)N3C2)c2ccccc12 [Compound 5110, 1,1,1-trifluoro-2-methylpropan-2-yl ((2R,6S,7R,9S,13aR,14aR,16aS)-7,9-dimethyl-14a-(((1-methylcyclopropyl)sulfonyl)carbamoyl)-5,16-dioxo-2-((4-(trideuteromethoxy)isoquinolin-1-yl)oxy)octadecahydrocyclopropa[e]pyrrolo[1,2-a][1,4]diazacyclopentadecin-6-yl)carbamate] | 4.82 to 103 | < 5.46 | –
8 | [2H]C([2H])([2H])C(OC(=O)N[C@@H]1C(=O)N2C[C@H](Oc3nccc4cc(OC)ccc34)C[C@H]2C(=O)N[C@]2(C(=O)NS(=O)(=O)C3(C)CC3)C[C@H]2/C=C\CC[C@@H](C)C[C@H]1C)(C([2H])([2H])[2H])C(F)(F)F [Compound 5175, 1,1,1,3,3,3-hexadeutero-2-(trifluoromethyl)propan-2-yl ((2R,6S,7R,9R,13aS,14aR,16aS,Z)-2-((6-methoxyisoquinolin-1-yl)oxy)-7,9-dimethyl-14a-(((1-methylcyclopropyl)sulfonyl)carbamoyl)-5,16-dioxo-1,2,3,5,6,7,8,9,10,11,13a,14,14a,15,16,16a-hexadecahydrocyclopropa[e]pyrrolo[1,2-a][1,4]diazacyclopentadecin-6-yl)carbamate] | – | – | EC50 ([1]; HCV genotype 1a replicon luciferase, range class): < 5.46 nM; EC50 ([2]; HCV genotype 1b replicon luciferase, range class): < 5.46 nM
9 | CCOc1cnc(O[C@@H]2C[C@H]3C(=O)N[C@]4(C(=O)NS(=O)(=O)C5(C)CC5)C[C@H]4/C=C\CC[C@@H](C)C[C@@H](C)[C@H](NC(=O)OC(C)(C)C(C)(F)F)C(=O)N3C2)c2ccccc12 [Compound 5113, 3,3-difluoro-2-methylbutan-2-yl ((2R,6S,7R,9R,13 aS,14aR,16aS,Z)-2-((4-ethoxyisoquinolin-1-yl)oxy)-7,9-dimethyl-14a-(((1-methylcyclopropyl)sulfonyl)carbamoyl)-5,16-dioxo-1,2,3,5,6,7,8,9,10,11,13a,14,14a,15,16,16a-hexadecahydrocyclopropa[e]pyrrolo[1,2-a][1,4]diazacyclopentadecin-6-yl)carbamate] | < 5.46 | < 5.46 | –
10 | COc1cnc(O[C@@H]2C[C@H]3C(=O)N[C@]4(C(=O)NS(=O)(=O)C5(C)CC5)C[C@H]4/C=C\CC[C@H](C)C[C@@H](C)[C@H](NC(=O)OC(C)(C)C)C(=O)N3C2)c2ccccc12 [Compound 4058, tert-butyl (2R,6S,7R,9S,13aS,14aR,16aS,Z)-2-(4-methoxyisoquinolin-1-yloxy)-7,9-dimethyl-14a-(1-methylcyclopropylsulfonylcarbamoyl)-5,16-dioxo-1,2,3,5,6,7,8,9,10,11,13a,14,14a,15,16,16a-hexadecahydrocyclopropa[e]pyrrolo[1,2-a][1,4]diazacyclopentadecin-6-ylcarbamate] | < 5.46 | < 5.46 | –
11 | CCOc1ccc2c(O[C@@H]3C[C@H]4C(=O)N[C@]5(C(=O)NS(=O)(=O)C6CC6)C[C@H]5/C=C\CC[C@H](C)C[C@@H](C)[C@H](NC(=O)OC(C)(C)C(F)(F)F)C(=O)N4C3)nccc2c1 [Compound 5129, 1,1,1-trifluoro-2-methylpropan-2-yl ((2R,6S,7R,9S,13aS,14aR,16aS,Z)-14a-((cyclopropylsulfonyl)carbamoyl)-2-((6-ethoxyisoquinolin-1-yl)oxy)-7,9-dimethyl-5,16-dioxo-1,2,3,5,6,7,8,9,10,11,13a,14,14a,15,16,16a-hexadecahydrocyclopropa[e]pyrrolo[1,2-a][1,4]diazacyclopentadecin-6-yl)carbamate] | 4.82 to 103 | < 5.46 | –
12 | C[C@@H]1CC/C=C\[C@@H]2C[C@@]2(C(=O)NS(=O)(=O)C2(C)CC2)NC(=O)[C@@H]2C[C@@H](Oc3nccc4c(N5CCOCC5)cccc34)CN2C(=O)[C@@H](NC(=O)OC(C)(C)C(C)(F)F)[C@H](C)C1 [Compound 5126, 3,3-difluoro-2-methylbutan-2-yl ((2R,6S,7R,9R,13aS,14aR,16aS,Z)-7,9-dimethyl-14a-(((1-methylcyclopropyl)sulfonyl)carbamoyl)-2-((5-morpholinoisoquinolin-1-yl)oxy)-5,16-dioxo-1,2,3,5,6,7,8,9,10,11,13a,14,14a,15,16,16a-hexadecahydrocyclopropa[e]pyrrolo[1,2-a][1,4]diazacyclopentadecin-6-yl)carbamate] | < 5.46 | < 5.46 | –
